Data reported in article PMC5007552, “The hVps34‐SGK3 pathway alleviates sustained PI3K/Akt inhibition by stimulating mTORC1 and tumour growth” (The EMBO Journal, 2016).
Several values for one entry are separate records, joined by “and”; a condition that tells them apart may be missing. Equal values may be shown once.

Test system: ZR-75-1 cells
Assay: NanoString human kinome mRNA quantification
Type: cell-based
Excerpt: Human mRNAs were hybridised to NanoString human kinome and control code sets, then subjected to quantification using NanoString software. […] To permit data compaction, and simple kinome‐wide comparisons, the fold changes are log2 transformed. […] Cell pellets were resuspended at a concentration of ~6,500 cells/μl in RLT buffer (Qiagen). […] For total copy numbers, triplicate normalised count values were averaged, and to calculate fold induction, means were divided by triplicate mean values from matched DMSO controls. P‐values were calculated using unpaired t‐test (GraphPad Prism software) by employing treated and control count data for each kinase mRNA.

SMILES: NC1(c2ccc(-c3nc4ccn5c(=O)[nH]nc5c4cc3-c3ccccc3)cc2)CCC1 [MK-2206]
- Normalised counts (EGFR mRNA, single replicates): 75.1 and 79.82 and 79.29
- Average normalised counts (EIF2AK1 mRNA): 3890.11
- Normalised counts (EIF2AK1 mRNA, single replicates): 3762.77 and 3749.38 and 4158.18
- Average normalised counts (EIF2AK2 mRNA): 387.137
- Normalised counts (EIF2AK2 mRNA, single replicates): 351.43 and 373.45 and 436.53
- Average normalised counts (EIF2AK3 mRNA): 167.45
- Normalised counts (EIF2AK3 mRNA, single replicates): 158.73 and 166.69 and 176.93
- Average normalised counts (EIF2AK4 mRNA): 999.56
- Normalised counts (EIF2AK4 mRNA, single replicates): 986.79 and 999.81 and 1012.08
- Average normalised counts (EPHA1 mRNA): 298.103
- Normalised counts (EPHA1 mRNA, single replicates): 293.25 and 307.43 and 293.63
- Average normalised counts (EPHA2 mRNA): 98.1433
- Normalised counts (EPHA2 mRNA, single replicates): 101.46 and 85.9 and 107.07
- Average normalised counts (EPHA3 mRNA): 1
- Normalised counts (EPHA3 mRNA, single replicates): 1
- Average normalised counts (EPHA4 mRNA): 54.0467
- Normalised counts (EPHA4 mRNA, single replicates): 47.83 and 66.78 and 47.53
- Average normalised counts (EPHA5 mRNA): 2.657
- Normalised counts (EPHA5 mRNA, single replicates): 2.39 and 2.5 and 3.08
- Average normalised counts (EPHA6 mRNA): 46.39
- Normalised counts (EPHA6 mRNA, single replicates): 39.65 and 42.46 and 57.06
- Average normalised counts (EPHA7 mRNA): 9.993
- Normalised counts (EPHA7 mRNA, single replicates): 14.2 and 10.32 and 5.46
- Average normalised counts (EPHA8 mRNA): 2.44
- Normalised counts (EPHA8 mRNA, single replicates): 4.2 and 1.63 and 1.49
- Average normalised counts (EPHA10 mRNA): 29.9233
- Normalised counts (EPHA10 mRNA, single replicates): 36.93 and 25.95 and 26.89
- Average normalised counts (EPHB1 mRNA): 2.73
- Normalised counts (EPHB1 mRNA, single replicates): 4.2 and 2.5
- Average normalised counts (EPHB2 mRNA): 16.0233
- Average normalised counts (EPHB3 mRNA): 206.547
- Average normalised counts (EPHB4 mRNA): 1166.85
- Average normalised counts (EPHB6 mRNA): 2.217
- Average normalised counts (ERBB2 mRNA): 3923.04
- Average normalised counts (ERBB3 mRNA): 1260.11
- Average normalised counts (ERBB4 mRNA): 408.193
- Average normalised counts (ERN1 mRNA): 386.247
- Average normalised counts (ERN2 mRNA): 2.483
- Average normalised counts (FASTK mRNA): 67.2133
- Average normalised counts (FASTKD1 mRNA): 614.733
- Average normalised counts (FASTKD2 mRNA): 563.933
- Average normalised counts (FASTKD3 mRNA): 173.083
- Average normalised counts (FASTKD5 mRNA): 437.597
- Average normalised counts (FER mRNA): 455.723
- Average normalised counts (FES mRNA): 1.427
- Average normalised counts (FGFR1 mRNA): 1112.53
- Average normalised counts (FGFR2 mRNA): 189.803
- Average normalised counts (FGFR3 mRNA): 1392.79
- Average normalised counts (FGFR4 mRNA): 1462.07
- Average normalised counts (FGFRL1 mRNA): 1225.18
- Average normalised counts (FGR mRNA): 1
- Average normalised counts FLJ25006 (FLJ25006 mRNA, average of 3 replicates): 106.973
- Normalised counts FLJ25006 (FLJ25006 mRNA, single replicates): 105.1 and 102.4 and 113.42
- Average normalised counts FLT1 (FLT1 mRNA, average of 3 replicates): 1
- Normalised counts FLT1 (FLT1 mRNA, single replicates): 1
- Average normalised counts FLT3 (FLT3 mRNA, average of 3 replicates): 149.337
- Normalised counts FLT3 (FLT3 mRNA, single replicates): 146.91 and 161.48 and 139.62
- Average normalised counts FLT4 (FLT4 mRNA, average of 3 replicates): 1.957
- Normalised counts FLT4 (FLT4 mRNA, single replicates): 1 (2×) and 3.87
- Average normalised counts FRK (FRK mRNA, average of 3 replicates): 160.35
- Normalised counts FRK (FRK mRNA, single replicates): 165.09 and 158.87 and 157.09
- Average normalised counts FYN (FYN mRNA, average of 3 replicates): 5.563
- Normalised counts FYN (FYN mRNA, single replicates): 5.11 and 7.71 and 3.87
- Average normalised counts GAK (GAK mRNA, average of 3 replicates): 673.637
- Normalised counts GAK (GAK mRNA, single replicates): 641.39 and 690.54 and 688.98
- Average normalised counts GRK1 (GRK1 mRNA, average of 3 replicates): 10.12
- Normalised counts GRK1 (GRK1 mRNA, single replicates): 8.75 and 4.24 and 17.37
- Average normalised counts GRK4 (GRK4 mRNA, average of 3 replicates): 59.8967
- Normalised counts GRK4 (GRK4 mRNA, single replicates): 59.65 and 50.28 and 69.76
- Normalised counts GRK5 (GRK5 mRNA, single replicates): 18.75 and 22.48 and 22.13
- Average normalised counts GRK7 (GRK7 mRNA, average of 3 replicates): 1.957
- Normalised counts GRK7 (GRK7 mRNA, single replicates): 1 (2×) and 3.87
- Average normalised counts GSG2 (GSG2 mRNA, average of 3 replicates): 390.143
- Normalised counts GSG2 (GSG2 mRNA, single replicates): 395.97 and 394.3 and 380.16
- Average normalised counts GSK3A (GSK3A mRNA, average of 3 replicates): 3191.73
- Normalised counts GSK3A (GSK3A mRNA, single replicates): 3156.49 and 3192.52 and 3226.18
- Average normalised counts GSK3B (GSK3B mRNA, average of 3 replicates): 4035
- Normalised counts GSK3B (GSK3B mRNA, single replicates): 3944.57 and 4049.09 and 4111.34
- Average normalised counts GUCY2C (GUCY2C mRNA, average of 3 replicates): 1
- Normalised counts GUCY2C (GUCY2C mRNA, single replicates): 1
- Average normalised counts GUCY2D (GUCY2D mRNA, average of 3 replicates): 5.627
- Normalised counts GUCY2D (GUCY2D mRNA, single replicates): 6.02 and 8.58 and 2.28
- Average normalised counts GUCY2F (GUCY2F mRNA, average of 3 replicates): 1.693
- Normalised counts GUCY2F (GUCY2F mRNA, single replicates): 1 (2×) and 3.08
- Average normalised counts HCK (HCK mRNA, average of 3 replicates): 1.533
- Normalised counts HCK (HCK mRNA, single replicates): 1.48 and 1.63 and 1.49
- Average normalised counts HIPK1 (HIPK1 mRNA, average of 3 replicates): 582.127
